As usually defined, the EC50 is the concentration giving half of the maximal effect.

In series [1] the test system is genotype 1b (Con-1) HCV replicon. Put plainly: HCV Replicon Luciferase Assay. Particulars: Hepatitis C virus, 72 h, genotype 1b HCV replicon, Huh-7, Renilla luciferase, 3 days. The class given is cell-based. As for the experimental part: Cell Lines. The cell lines used to evaluate compounds consist of a human hepatocyte derived cell line (Huh-7) that constitutively expresses a genotype 1b (Con-1) HCV replicon or a genotype 1b (Con-1) HCV replicon with an asparagine replacing the cysteine at amino acid 316, or a genotype 2a (JFH-1) replicon, containing a Renilla luciferase reporter gene. These cells were maintained in Dulbecco's modified Eagle medium (DMEM) containing 10% FBS, 100 U/mL penicillin/streptomycin and 1.0 mg/mL G418.
HCV Replicon Luciferase Assay. To evaluate compound efficacy, titrated compounds were transferred to sterile 384-well tissue culture treated plates, and the plates were seeded with HCV replicon cells (50 μL at a density of 2.4×10^3 cells/well) in DMEM containing 4% FBS (final DMSO concentration at 0.5%). After 3 days incubation at 37° C., cells were analyzed for Renilla Luciferase activity using the EnduRen substrate (Promega cat #E6485) according to the manufacturer's directions. Briefly, the EnduRen substrate was diluted in DMEM and then added to the plates to a final concentration of 7.5 μM. The plates were incubated for at least 1 h at 37° C. then read on a Viewlux Imager (PerkinElmer) using a luminescence program. The 50% effective concentration (EC50) was calculated using the four-parameter logistic formula noted above.
For orientation: A replicon is a self-replicating genome or part of one, used to study replication in cells.

A further series relates to HCV. Particulars: single agent: transient decrease then rebound; cited from earlier work.
For series [2] the following is noted: extended dosing of combination regimens with interferon and ribavirin; cited from earlier work.

Like-named read-outs stand apart in the source and are kept apart here. Where only a bound is given, the exact number is not on record here.

`CNC(=O)c1c(-c2ccc(F)cc2)oc2cc(N(CCF)S(C)(=O)=O)c(-c3cccc(C(=O)N4CCn5cc(C(F)(F)F)nc5C4)c3)cc12` [Compound 1001]: the EC50 in series [1] (read-out: EC50 1b (class)) is less than 0.1 µM; in series [1] (read-out: EC50 (uM) 1b) it was 0.0349 µM.

Consider `CNC(=O)c1c(-c2ccc(F)cc2)oc2cc(N(CCF)S(C)(=O)=O)c(-c3cccc(C(=O)N4CCn5c(nnc5C(F)(F)F)C4)c3)cc12` [Compound 1002], for which the EC50 in series [1] (read-out: EC50 1b (class)) fell in the range of 0.1 to 1 µM.

On to `CNC(=O)c1c(-c2ccc(F)cc2)oc2cc(N(CCF)S(C)(=O)=O)c(-c3cccc(C(=O)N4CCc5nc[nH]c5C4)c3)cc12` [Compound 1003], for which, in series [1] (read-out: EC50 1b (class)), the EC50 was more than 1 µM.

As to `CNC(=O)c1c(-c2ccc(F)cc2)oc2cc(N(CCF)S(C)(=O)=O)c(-c3cccc(C(=O)N4CCc5[nH]ncc5C4)c3)cc12` [Compound 1004], the EC50 in series [1] (read-out: EC50 1b (class)) was 0.1 to 1 µM; in series [1] (read-out: EC50 (uM) 1b) it was 0.975 µM.

Take `CNC(=O)c1c(-c2ccc(F)cc2)oc2cc(N(CCF)S(C)(=O)=O)c(-c3cccc(C(=O)N4CCn5cccc5C4c4cccnc4)c3)cc12` (stereo not drawn) [Compound 1005]: the EC50 in series [1] (read-out: EC50 1b (class)) was less than 0.1 µM.

In the case of `CNC(=O)c1c(-c2ccc(F)cc2)oc2cc(N(CCF)S(C)(=O)=O)c(-c3cccc(C(=O)N4CCC5CC54)c3)cc12` (stereo not drawn) [Compound 1006], the EC50 in series [1] (read-out: EC50 1b (class)) is less than 0.1 µM.

Take `CNC(=O)c1c(-c2ccc(F)cc2)oc2cc(N(CCF)S(C)(=O)=O)c(-c3cccc(C(=O)N4[C@H](C(N)=O)C[C@@H]5C[C@@H]54)c3)cc12` [Compound 1007]: the EC50 in series [1] (read-out: EC50 1b (class)) was more than 1 µM.

As for `CNC(=O)c1c(-c2ccc(F)cc2)oc2cc(N(CCF)S(C)(=O)=O)c(-c3cccc(C(=O)N4CCC5(CCN(C(=O)OC(C)(C)C)C5)C4)c3)cc12` (stereo not drawn) [Compound 1008], the EC50 in series [1] (read-out: EC50 1b (class)) was less than 0.1 µM; in series [1] (read-out: EC50 (uM) 1b), 0.0964 µM.

With `CNC(=O)c1c(-c2ccc(F)cc2)oc2cc(N(CCF)S(C)(=O)=O)c(-c3cccc(C(=O)N4CC5CCN(C(=O)OC(C)(C)C)C5C4)c3)cc12` (stereo not drawn) [Compound 1009], the EC50 in series [1] (read-out: EC50 1b (class)) was in the range of 0.1 to 1 µM.

Regarding `CNC(=O)c1c(-c2ccc(F)cc2)oc2cc(N(CCF)S(C)(=O)=O)c(-c3cccc(C(=O)N4CC5CCN(C(=O)OC(C)(C)C)CC5C4)c3)cc12` (stereo not drawn) [Compound 1010], in series [1] (read-out: EC50 1b (class)), the EC50 is less than 0.1 µM.

For `CNC(=O)c1c(-c2ccc(F)cc2)oc2cc(N(CCO)S(C)(=O)=O)c(C3CC3)cc12` [HCV-796], the “HCV RNA levels in patients” value in the series on HCV is recorded as “reduce HCV RNA levels”. Further, in series [2], the hepatic toxicity entry was “hepatic toxicity”.

These data come from patent publication US10125137B2, “Benzofurans substituted with bicyclic secondary benzamide as HCV inhibitors” (BRISTOL-MYERS SQUIBB COMPANY, priority 2015, dated 2018).
